“Also recorded” adds a separate entry of the source. Where a name gives a salt, the structure may show the parent alone.
Tests used:
[1] = system: Long Evans rats; assay: auditory Pavlovian fear conditioning and extinction testing, unstressed rats; format: in vivo, rat
Procedure: All experiments used adult, male Long Evans rats (300-350 g, Charles River, Raleigh, N.C. or 250-275 g, Taconic, Germantown, N.Y.), individually housed (68-72° F.; 12-h light/dark cycle, 0700 h lights on). Control animals were housed in separate cubicles from stressed animals. Water and food was given ad libitum. All procedures were approved by the Institutional Animal Care and Use Committee of the Massachusetts Institute of Technology and the Animal Care and Use Review Office of the US Army Medical Research and Materiel Command and in accordance with the US National Institutes of Health (NIH) Guide for the Care and Use of Laboratory Animals.
(§1) Some rats received systemic or intra-BLA delivery of ibutamoren mesylate (IBU). For systemic drug delivery, rats were injected with 1 ml kg^−1 intraperitoneal injection (i.p.) of either vehicle or drug. […] A concentration of 0.5 mg ml^−1, diluted in saline, was used. For experiments using intra-BLA drug delivery, ibutamoren mesylate was solubilized in artificial cerebrospinal fluid (pH=7.4) to a concentration of 0.5 μg μl^−1.
Some rats received bilateral implants of stainless steel cannulae aimed at the BLA. Rats were anesthetized with a cocktail of 10 mg kg^−1 acepromazine, 100 mg kg^−1 xylazine, and 100 mg kg^−1 ketamine (1 ml kg^−1; i.p.) and placed in a dual arm stereotaxic frame (Kopf Instruments; Tujunga, Calif.). The rats were then implanted with 23 gauge guide cannulae 1 mm above LA using the following coordinates, relative to bregma and brain surface: A/P −2.0, M/L+/−5.3, D/V −5.4. Three jeweler screws were also implanted in the skull, and dental acrylic was used to secure the implant. Dummy cannulae extending 1 mm past the tip of the guide cannulae were placed into the guide cannula after surgery and changed every other day. Rats received 0.03 mg kg^−1 of Buprenex (1 ml kg^−1; subcutaneous injection (s.c.)) for post-operative pain management. All rats recovered for a minimum of 5 days.
A subset of rats were subjected to auditory Pavlovian fear conditioning and extinction testing. All rats were transported in their home cages from the vivarium to a holding room in which no behavioral testing was conducted. This transport occurred at least one hour prior to the onset of any behavioral testing.
For catheterized rats, each rat was placed in a fear conditioning box (MedAssociates; St. Albans, Vt.) scented with Pine-Sol (1%) for 250 sec total. The rats had 3 minutes to explore the novel environment before tone (10 seconds, 85 dB)-shock (2 seconds, 0.35 mA; coterminating with the tone) pairings [20 second intertrial intervals (ITIs)] were administered. Long-term context and tone fear memory was assessed the following day. For context extinction, the rats were returned to the fear conditioning context for a total of 10 minutes. Four hours later, tone extinction was administered by placing the rats in the fear conditioning boxes with an altered context. White Plexiglas inserts were used to obscure the back and side walls and cover the grid floor. Room and box lights were turned off, a red light provided illumination (15 W), and acetic acid (1%) was used to scent the boxes. Two minutes were allowed for exploration before a continuous tone (8 minutes, 87 dB) was presented. For rats with BLA cannula implants, all conditioning and testing was as described, except context and tone extinction were separated by 24 hours.
(§2) On the fear conditioning day, rats were exposed to four tone-shock pairings with a 60 second ITI (460 seconds total time). For context extinction, rats were returned to the conditioning context for 12 minutes total. For tone extinction, rats were exposed to twelve tones (10 seconds, 85 dB) for 960 seconds total. Conditioning, context and tone extinction sessions were separated by 24 hours.
Infrared cameras (frame rate: 30 Hz) and VideoFreeze software (MedAssociates; St Albans, Vt.) were used to record behavior during all training and testing sessions. […]

[2] = system: Long Evans rats; assay: auditory fear conditioning after chronic immobilization stress or handling; format: in vivo, rat; details: FIG. 4F
Procedure: as §1, §2
Infrared cameras (frame rate: 30 Hz) and VideoFreeze software (MedAssociates; St Albans, Vt.) were used to record behavior during all training and testing sessions. Motor activity was measured using the “motion index”, a number generated by the VideoFreeze software, which corresponds roughly to the change in grayscale values across the image pixels; a higher motion index indicates greater movement. Freezing was measured by computing the number of observations below a threshold motion index and converting this number to a percentage of all observations for the period of interest. The threshold defined the value of the motion index below which only motor activity related to breathing was observed. […]
To determine whether the decrease in ghrelin binding sites in the BLA of chronically stressed rats exerts a functional impact, rats received either chronic immobilization stress or handling for two weeks followed by auditory fear conditioning (FIG. 4E). IBU, at the dose shown to reduce fear memory strength in unstressed rats (FIGS. 3A-D), or VEH was injected immediately after conditioning and long-term auditory fear memory was assessed two days later. […]

[3] = system: Long Evans rats; assay: food consumption assay and body weight after IBU; format: in vivo, rat
Procedure: as §1
For some rats, food consumption was monitored. After fear conditioning as described above, each rat was returned to its home cage in a holding room. Each rat had 200 g of chow placed in the food hopper. Food was quickly weighed and returned 30 minutes, 1 hour, 2 hours, and 3 hours after fear conditioning ended. Three days after fear recall testing (five days after fear conditioning), food consumption was measured during the same time points within the day, but while the rats were undisturbed in their home cages in the vivarium.
To assess fear memory strength, conditional freezing was expressed as the percentage of time spent freezing, a probability estimate amenable to analysis with parametric statistics. These estimates of freezing, as well as hormone levels and data related to food consumption and body weight, were analyzed using ANOVA. Post hoc Fisher's PLSD tests were performed after a significant omnibus F-ratio.

[4] = in vivo; cited from earlier work
[5] = intra-BLA infusion (0.5 μg/μl) prior to fear conditioning, FIG. 3B
[6] = systemic (i.p., 0.5 mg/ml) prior to fear conditioning, vs vehicle, FIG. 3A
[7] = systemic, 0.5 mg/mL, following fear conditioning, FIG. 7A

Q: Which fear acquisition [1, 5] does the source give for `CC(C)(N)C(=O)N[C@H](COCc1ccccc1)C(=O)N1CCC2(CC1)CN(S(C)(=O)=O)c1ccccc12` [IBU, ibutamoren mesylate] here?
A: without any effect; also recorded: without affecting

Q: And the “long-term auditory fear memory” value [1, 5]?
A: strongly inhibited; also recorded: significantly impaired

Q: What about the long-term contextual memory [1, 5] of the same molecule?
A: strongly inhibited; also recorded: significantly impaired

Q: And the fear acquisition [1, 6]?
A: without impacting; also recorded: without affecting

Q: What about the long-term contextual memory [1, 6] of the same molecule?
A: without impacting; also recorded: without affecting

Q: And the “long-term auditory fear memory” value ([1]; systemic (i.p., 1 ml/kg of 0.5 mg/ml) 30 minutes prior to fear conditioning, vs vehicle, FIG. 3A)?
A: significantly lower levels; also recorded: significantly impaired

Q: And the fear acquisition [1, 7]?
A: without any effect; also recorded: without affecting

Q: What about the “long-term auditory fear memory” value [1, 7] of the same molecule?
A: strongly inhibited; also recorded: significantly impaired

Q: What about the “long-term contextual fear memory” value [1, 7] of the same molecule?
A: strongly inhibited; also recorded: significantly impaired

Q: And the “long-term auditory fear memory (conditional freezing)” value ([2]; rats exposed to chronic immobilization stress (14 days), systemic IBU)?
A: no effect and not

Q: What about the “freezing during fear conditioning (group differences)” value ([2]; stressed and unstressed rats, IBU or VEH) of the same molecule?
A: No group differences

Q: And the “long-term auditory fear memory” value ([2]; unstressed (handled) rats, systemic IBU)?
A: reduced; also recorded: significantly impaired

Q: And the “body weight measured 24 hours after injection” value ([3]; intra-BLA infusion, FIG. 3D)?
A: does not change

Q: What about the body weight ([3]; systemic, 0.5 mg/mL, IBU vs vehicle group, FIG. 3C right panel) of the same molecule?
A: did not differ

Q: And the “food consumption shortly following injection” value ([3]; systemic, 0.5 mg/mL, relative to body weight, FIG. 3C left panel)?
A: does not impact

Q: And the “food consumption cumulatively, over the 24 hours following injection” value ([3]; systemic, 0.5 mg/mL, relative to body weight, FIG. 3C middle panel)?
A: does not impact

Q: And the “food consumption shortly following injection” value ([3]; systemic, 10 mg/mL (twenty times the dose), FIG. 7B left panel)?
A: does not impact

Q: What about the “food consumption cumulatively, over the 24 h following injection” value ([3]; systemic, 10 mg/mL (twenty times the dose), FIG. 7B middle panel) of the same molecule?
A: does not impact

Q: And the “crossing of the blood-brain barrier” value [4]?
A: readily crosses

Q: What about the half-life [4] of the same molecule?
A: > 6 h

Source: patent US10317418B2, “Use of ghrelin or functional ghrelin receptor agonists to prevent and treat stress-sensitive psychiatric illness” (Massachusetts Institute of Technology, priority 2015, dated 2019)
